Test results published in the supplement of paper PMC10307832.

What was measured:
Assay in all cases: relative viability (nuclei count vs DMSO), 5 days (fraction); higher = more cells survive
[1] = compound: C1CNCCC1C2=CC(=NN2)C3=CC=NC=C3 + Cc1cc(Nc2cc(N3CCN(C)CC3)nc(Sc3ccc(NC(=O)C4CC4)cc3)n2)n[nH]1 [Tozasertib] (partner 0.1 µM)
How it was run: (§1)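 Medians of duplicate plates are given as relative viability. That measure is the nuclei count in treated wells divided by the count in vehicle wells. Counts were taken on 4× images of lung cancer cell lines in 1536-well plates, 5 days after pin-tool dosing the day after seeding with one drug alone or a fixed anchor-drug dose plus five library-drug doses (not always all listed) in √10 steps.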

[2] = compound: C1CNCCC1C2=CC(=NN2)C3=CC=NC=C3 + CC(=O)Nc1cccc(-n2c(=O)n(C3CC3)c(=O)c3c(Nc4ccc(I)cc4F)n(C)c(=O)c(C)c32)c1 [Trametinib] (partner 0.02 µM)
How it was run: as §1

Tanzisertib + Foretinib = compound: O[C@H]1CC[C@H](Nc2ncc3nc(Nc4c(F)cc(F)cc4F)n([C@H]4CCOC4)c3n2)CC1 [Tanzisertib] + COc1cc2c(Oc3ccc(NC(=O)C4(C(=O)Nc5ccc(F)cc5)CC4)cc3F)ccnc2cc1OCCCN1CCOCC1 [Foretinib] (partner 0.25 µM)
How it was run: as §1

[3] = compound: C1CNCCC1C2=CC(=NN2)C3=CC=NC=C3 + COc1cc2c(Oc3ccc(NC(=O)C4(C(=O)Nc5ccc(F)cc5)CC4)cc3F)ccnc2cc1OCCCN1CCOCC1 [Foretinib] (partner 0.25 µM)
How it was run: as §1

NCI-H1734
relative viability ([1]; first compound 0.08 µM): 0.27
relative viability ([1]; first compound 0.8 µM): 0.279
relative viability ([1]; first compound 2.53 µM): 0.269
relative viability ([1]; first compound 8 µM): 0.271
relative viability ([2]; first compound 0.08 µM): 0.531
relative viability ([2]; first compound 0.8 µM): 0.708
relative viability ([2]; first compound 2.53 µM): 0.668
relative viability ([2]; first compound 8 µM): 0.667
relative viability (Tanzisertib + Foretinib; first compound 0.08 µM): 0.923
relative viability (Tanzisertib + Foretinib; first compound 0.253 µM): 0.781
relative viability (Tanzisertib + Foretinib; first compound 0.8 µM): 0.845
relative viability (Tanzisertib + Foretinib; first compound 2.53 µM): 0.87
relative viability (Tanzisertib + Foretinib; first compound 8 µM): 0.789
relative viability ([3]; first compound 0.08 µM): 0.81
relative viability ([3]; first compound 0.8 µM): 0.919
relative viability ([3]; first compound 2.53 µM): 0.992
relative viability ([3]; first compound 8 µM): 0.836

NCI-H1650
relative viability ([1]; first compound 0.08 µM): 0.393
relative viability ([1]; first compound 0.8 µM): 0.446
relative viability ([1]; first compound 2.53 µM): 0.433
relative viability ([1]; first compound 8 µM): 0.392
relative viability ([2]; first compound 0.08 µM): 0.506
relative viability ([2]; first compound 0.8 µM): 0.558
relative viability ([2]; first compound 2.53 µM): 0.569
relative viability ([2]; first compound 8 µM): 0.578
relative viability (Tanzisertib + Foretinib; first compound 0.08 µM): 1.3
relative viability (Tanzisertib + Foretinib; first compound 0.253 µM): 0.984
relative viability (Tanzisertib + Foretinib; first compound 0.8 µM): 1.07
relative viability (Tanzisertib + Foretinib; first compound 2.53 µM): 1.15
relative viability (Tanzisertib + Foretinib; first compound 8 µM): 0.776
relative viability ([3]; first compound 0.08 µM): 0.798
relative viability ([3]; first compound 0.8 µM): 0.98
relative viability ([3]; first compound 2.53 µM): 1.16
relative viability ([3]; first compound 8 µM): 1.21

NCI-H596
relative viability ([1]; first compound 0.08 µM): 0.874
relative viability ([1]; first compound 0.8 µM): 1.04
relative viability ([1]; first compound 2.53 µM): 0.814
relative viability ([1]; first compound 8 µM): 1.01
relative viability ([2]; first compound 0.08 µM): 0.777
relative viability ([2]; first compound 0.8 µM): 0.808
relative viability ([2]; first compound 2.53 µM): 0.819
relative viability ([2]; first compound 8 µM): 0.834
relative viability (Tanzisertib + Foretinib; first compound 0.08 µM): 0.723
relative viability (Tanzisertib + Foretinib; first compound 0.253 µM): 0.82
relative viability (Tanzisertib + Foretinib; first compound 0.8 µM): 0.724
relative viability (Tanzisertib + Foretinib; first compound 2.53 µM): 0.699
relative viability (Tanzisertib + Foretinib; first compound 8 µM): 0.76
relative viability ([3]; first compound 0.08 µM): 0.87
relative viability ([3]; first compound 0.8 µM): 0.834
relative viability ([3]; first compound 2.53 µM): 0.965
relative viability ([3]; first compound 8 µM): 0.889

NCI-H1944
relative viability ([1]; first compound 0.08 µM): 0.243
relative viability ([1]; first compound 0.8 µM): 0.264
relative viability ([1]; first compound 2.53 µM): 0.263
relative viability ([1]; first compound 8 µM): 0.256
relative viability ([2]; first compound 0.08 µM): 0.333
relative viability ([2]; first compound 0.8 µM): 0.376
relative viability ([2]; first compound 2.53 µM): 0.389
relative viability ([2]; first compound 8 µM): 0.411
relative viability (Tanzisertib + Foretinib; first compound 0.08 µM): 0.957
relative viability (Tanzisertib + Foretinib; first compound 0.253 µM): 0.936
relative viability (Tanzisertib + Foretinib; first compound 0.8 µM): 0.855
relative viability (Tanzisertib + Foretinib; first compound 2.53 µM): 0.928
relative viability (Tanzisertib + Foretinib; first compound 8 µM): 0.822
relative viability ([3]; first compound 0.08 µM): 0.845
relative viability ([3]; first compound 0.8 µM): 0.884
relative viability ([3]; first compound 2.53 µM): 0.997
relative viability ([3]; first compound 8 µM): 0.839

LK-2
relative viability ([1]; first compound 0.08 µM): 0.157
relative viability ([1]; first compound 0.8 µM): 0.208
relative viability ([1]; first compound 2.53 µM): 0.182
relative viability ([1]; first compound 8 µM): 0.184
relative viability ([2]; first compound 0.08 µM): 0.605
relative viability ([2]; first compound 0.8 µM): 0.761
relative viability ([2]; first compound 2.53 µM): 0.591
relative viability ([2]; first compound 8 µM): 0.88
relative viability (Tanzisertib + Foretinib; first compound 0.08 µM): 1.26
relative viability (Tanzisertib + Foretinib; first compound 0.253 µM): 1.01
relative viability (Tanzisertib + Foretinib; first compound 0.8 µM): 1.11
relative viability (Tanzisertib + Foretinib; first compound 2.53 µM): 1.03
relative viability (Tanzisertib + Foretinib; first compound 8 µM): 1.46
relative viability ([3]; first compound 0.08 µM): 1.05
relative viability ([3]; first compound 0.8 µM): 1.27
relative viability ([3]; first compound 2.53 µM): 1.03
relative viability ([3]; first compound 8 µM): 1.42

HCC-15
relative viability ([1]; first compound 0.08 µM): 0.517
relative viability ([1]; first compound 0.8 µM): 0.372
relative viability ([1]; first compound 2.53 µM): 0.484
relative viability ([1]; first compound 8 µM): 0.355
relative viability ([2]; first compound 0.08 µM): 0.421
relative viability ([2]; first compound 0.8 µM): 0.387
relative viability ([2]; first compound 2.53 µM): 0.391
relative viability ([2]; first compound 8 µM): 0.4
relative viability (Tanzisertib + Foretinib; first compound 0.08 µM): 1.13
relative viability (Tanzisertib + Foretinib; first compound 0.253 µM): 1.05
relative viability (Tanzisertib + Foretinib; first compound 0.8 µM): 1.11
relative viability (Tanzisertib + Foretinib; first compound 2.53 µM): 1.02
relative viability (Tanzisertib + Foretinib; first compound 8 µM): 1.08
relative viability ([3]; first compound 0.08 µM): 0.899
relative viability ([3]; first compound 0.8 µM): 1.18
relative viability ([3]; first compound 2.53 µM): 1.07
relative viability ([3]; first compound 8 µM): 1.03

NCI-H727
relative viability ([1]; first compound 0.08 µM): 0.613
relative viability ([1]; first compound 0.8 µM): 0.51
relative viability ([1]; first compound 2.53 µM): 0.87
relative viability ([1]; first compound 8 µM): 0.545
relative viability ([2]; first compound 0.08 µM): 0.386
relative viability ([2]; first compound 0.8 µM): 0.366
relative viability ([2]; first compound 2.53 µM): 0.421
relative viability ([2]; first compound 8 µM): 0.364
relative viability (Tanzisertib + Foretinib; first compound 0.08 µM): 0.88
relative viability (Tanzisertib + Foretinib; first compound 0.253 µM): 1.02
relative viability (Tanzisertib + Foretinib; first compound 0.8 µM): 0.662
relative viability (Tanzisertib + Foretinib; first compound 2.53 µM): 0.936
relative viability (Tanzisertib + Foretinib; first compound 8 µM): 0.91
relative viability ([3]; first compound 0.08 µM): 0.805
relative viability ([3]; first compound 0.8 µM): 0.758
relative viability ([3]; first compound 2.53 µM): 1.13
relative viability ([3]; first compound 8 µM): 0.904

HOP-62
relative viability ([1]; first compound 0.08 µM): 0.416
relative viability ([1]; first compound 0.8 µM): 0.407
relative viability ([1]; first compound 2.53 µM): 0.386
relative viability ([1]; first compound 8 µM): 0.383
relative viability ([2]; first compound 0.08 µM): 0.344
relative viability ([2]; first compound 0.8 µM): 0.415
relative viability ([2]; first compound 2.53 µM): 0.425
relative viability ([2]; first compound 8 µM): 0.357
relative viability (Tanzisertib + Foretinib; first compound 0.08 µM): 0.99
relative viability (Tanzisertib + Foretinib; first compound 0.253 µM): 1.07
relative viability (Tanzisertib + Foretinib; first compound 0.8 µM): 0.986
relative viability (Tanzisertib + Foretinib; first compound 2.53 µM): 1.22
relative viability (Tanzisertib + Foretinib; first compound 8 µM): 1.32
relative viability ([3]; first compound 0.08 µM): 1.06
relative viability ([3]; first compound 0.8 µM): 1.31
relative viability ([3]; first compound 2.53 µM): 1.18
relative viability ([3]; first compound 8 µM): 1.09

NCI-H3122
relative viability ([1]; first compound 0.08 µM): 0.366
relative viability ([1]; first compound 0.8 µM): 0.416
relative viability ([1]; first compound 2.53 µM): 0.408
relative viability ([1]; first compound 8 µM): 0.417
relative viability ([2]; first compound 0.08 µM): 0.207
relative viability ([2]; first compound 0.8 µM): 0.222
relative viability ([2]; first compound 2.53 µM): 0.209
relative viability ([2]; first compound 8 µM): 0.238
relative viability (Tanzisertib + Foretinib; first compound 0.08 µM): 1.1
relative viability (Tanzisertib + Foretinib; first compound 0.253 µM): 0.951
relative viability (Tanzisertib + Foretinib; first compound 0.8 µM): 1.03
relative viability (Tanzisertib + Foretinib; first compound 2.53 µM): 0.99
relative viability (Tanzisertib + Foretinib; first compound 8 µM): 1.01
relative viability ([3]; first compound 0.08 µM): 1.01
relative viability ([3]; first compound 0.8 µM): 0.935
relative viability ([3]; first compound 2.53 µM): 0.942
relative viability ([3]; first compound 8 µM): 1.01
